“Also recorded” adds a separate entry of the source. Non-standard residues stand in square brackets, D forms with d. Residues, ends and D or L forms follow the SMILES beside them. No end group written: not given here. pGlu = O=C1CC[C@@H](C(=O)O)N1
Assays:
rats = conditions: rat, in vivo, iv, 250 mg/kg; cited from earlier work
[1] = test system: MDA-MB-435S.luc breast cancer cells; experiment: Effect of spacer molecule on cellular iron uptake (Example 27); format: cell-based, human; conditions: iron incubation 1 mg/ml, 3 hours; for iron accumulation in the breast cancer cells in the presence of LHRH: free LHRH present
Protocol: The effect of a spacer molecule on cellular uptake was tested in vitro on MDA-MB-435S.luc breast cancer cells, which express LHRH receptors. Iron incubation was conducted at 1 mg/ml for different conditions for 3 hours. Accumulation in the breast cancer cells was 82.3±25 pg/cell for SPIONs, 165±16 pg/cell for LHRH−SPIONs, and 223±16 pg/cell with LHRH-Glu-SPION. […] These observations support our hypothesis that iron uptake was driven by receptor-mediated endocytosis.

[2] = test system: MDA-MB-435S.luc tumor bearing mice; experiment: Treatment of tumor-xenografted mice (Example 29); format: in vivo, mouse; conditions: for tumor weights at necropsy: tail vein injections at 3, 4 and 5 weeks post-xenograft, 28 days after the start of treatment
Text: Mice were sacrificed and necropsied 6 weeks post-xenografts. […] Bodyweights, liver weights, and gonadal weights remained stable during all treatments. The breast cancer tumors and metastases were specifically targeted and destroyed by LHRH-conjugated SPIONs carrying a toxin (hecate). The same particles may be used for simultaneous treatment and imaging, e.g., for directly monitoring treatment response in cancer patients.

[3] = test system: MCF-7, MDA-MB-435S.luc and TM4 cell lines; experiment: In vitro toxicity of constructs on three cell lines, cell line not given; format: cell-based; conditions: FIG. 4
Text: FIG. 4 depicts toxicity measurements of different constructs on three cell lines.
Pancreatic, prostate, breast, and lung cancers may be targeted by LHRH, linked to a toxin or drug such as a lytic peptide and to a SPION. In one study we tested the use of LHRH−SPIONs conjugated to a toxin or drug for both treatment and imaging of tumors and metastases. A particle with a ligand and a toxin (drug) may be made in at least three different configurations: ligand-toxin(drug)-SPION, ligand-SPION-toxin(drug), or toxin(drug)-ligand-SPION. […] (The potential construct SPION-LHRH-Hecate was not tested in these experiments.) See FIG. 4. […] Based on the results reported above, the introduction of a spacer is expected to improve ligand-receptor interaction; and, in the case of a lytic peptide, to improve the peptide-membrane interaction. The spacer may also improve plasma stability of the particles.

[4] = test system: tumor-xenograft-bearing mice; conditions: 2, 10, 30 and 60 days after injection
Protocol: Pharmacokinetics of iron nanoparticles. To determine the pharmacokinetic profile of SPIONs and their conjugates, 4 groups of tumor-xenograft-bearing mice (n=10) are injected with the various concentrations of conjugated SPIONs as determined above. A fifth group serves as saline control. The mice are housed for 2, 10, 30, and 60 days after injection, and are then sacrificed to determine iron content in peripheral tissues. This experiment uses 50 female nude mice, and will establish the excretion profile of LHRH−SPIONs over a period of 60 days.

[5] = test system: breast cancer cells MDA-MB-435S; experiment: In vitro uptake of ligand-conjugated SPIONs (Example 10); format: cell-based, human; conditions: MDA-MB-435S cells, no free ligand
Protocol: (§1) LHRH−SPIONs and βCG/LH-SPIONs were tested on breast cancer cells MDA-MB-435S, on Chinese Hamster Ovary cells, on rat LH-receptor-transfected Chinese Hamster Ovary cells, and on mouse Sertoli cells. Experiments were conducted in the presence of LHRH, βCG, or neither. […] In addition, we observed that co-incubation with the free peptide ligands blocked the receptors that otherwise enabled the ligand-conjugated SPIONs to enter cells through receptor-mediated endocytosis. The uptake was then primarily via phagocytosis or pinocytosis at a low rate, similar to that for unconjugated SPIONs. The observed uptake was specific; the quantity of iron nanoparticles within the cells was substantially higher for receptor-mediated uptake.

human macrophages = experiment: In vitro macrophage uptake of nanoparticles (Example 26); format: cell-based; conditions: iron concentration of 20 μg/mL
[6] = test system: mice bearing the MDA-MB-435S.luc tumors; conditions: after sequential injections
Text: See FIGS. 3(a) through (d), showing photographs of Prussian Blue-stained sections from lungs of mice bearing the MDA-MB-435S.luc tumors. FIG. 3(a) depicts a saline-injected control. FIG. 3(b) depicts injection with unconjugated SPIONs. FIGS. 3 (c) and (d) depict injection with conjugated LHRH−SPIONs.

[7] = test system: Chinese Hamster Ovary cells; mouse Sertoli cells; experiment: In vitro uptake in cell lines that do not express the appropriate receptors; format: cell-based; conditions: listed as LHRH−SPIONs
Protocol: as §1

[8] = test system: male nude mice bearing tumors from human prostate cancer line PC-3.luc; conditions: mouse, in vivo
Text: This experiment employed male nude mice bearing tumors from human prostate cancer line PC-3.luc (with luciferase reporter).

tumor-free mice = conditions: mouse, in vivo, iv
Protocol: (§2) Targeting Human Breast Cancer Xenograft and their Metastases with LHRH−SPIONs in vivo. To evaluate the distribution of LHRH−SPIONs and unconjugated SPIONs in vivo, female nude mice with human breast MDA-MB-435S.luc xenograft as described above were injected intravenously with 250 mg/kg LHRH-SPIONs or with unconjugated SPIONs, 35 days after tumor inoculation. The mice were sacrificed 20 h after injection, and the organs and tumors were collected, weighed and analyzed for iron and luciferase. Portions of the organs and tumors were homogenized and their iron content determined spectrophotometrically after reaction with Prussian blue, while other portions were analyzed after fixation by transmission electron microscopy.
(§3) Statistical analyses were conducted on raw data by ANOVA. We obtained the ranks of the data, and then conducted a Kruskal-Wallis test. Differences were considered significant at the P<0.05 level. Rank data and variance stabilizing transformations were included.

[9] = test system: MDA-MB-435S.luc xenograft-bearing mouse; experiment: Iron content of tissue homogenates, tumor and kidney (Example 9); format: in vivo; conditions: 250 mg/kg tail vein, 20 hours
Protocol: Portions of the tissue samples from Example 8 were homogenized, and iron content was determined in calorimetric assays. The amounts of accumulated iron per gram total organ mass could thus be determined. […] When nanoparticles alone were injected, the iron content in tumors was only about 4%.

[10] = test system: female nude mice with human breast MDA-MB-435S.luc xenograft; conditions: mouse, in vivo
Protocol: as §2
The design of this cancer model was such that all tumor cells expressed luciferase, meaning that the presence of luciferase was inherently synonymous with the presence of cancer cells. By contrast, the presence of iron was not inherently synonymous with the presence of cancer cells. The goal of this experiment was to test the efficacy of the novel system at specifically delivering iron to cancer cells.
as §3

[11] = Surface charge of nanoparticles; format: physicochemical
Text: The magnetic nanoparticle preferably comprises primarily Fe3O4, rather than the Fe2O3 that has been used for most prior magnetic nanoparticles. The Fe3O4 particle surface contains amine groups that initially prevent agglomeration, eliminating the need for a coating such as a dextran or other intermediate coatings such as have been used in most prior magnetic nanoparticles. […] The only “coating” that need be used is the targeting agent itself, one with specificity for the target cells (or a combination of targeting agent and toxin or drug). The targeting agent, and the optional toxin or drug are covalently linked to the nanoparticle via amide linkages formed by reaction with the amine groups on the particles. The targeting agent may, for example, be a hormone, ligand, or antibody, or a fragment thereof to assist in selectively directing the particles to the cells of interest and facilitating their intracellular up-take and accumulation. The optional toxin or drug may, for example, be a lytic peptide, other peptide toxin, or other toxin or drug. Our studies have shown that reducing the amount of ligand/coating on the nanoparticles increases macrophage recognition and incorporation. By optionally distancing the ligand from the nanoparticle surface through a spacer molecule, ligand specificity may be retained while increasing cellular uptake. […]

[12] = test system: MDA-MB-435S.luc xenograft-bearing mouse; conditions: 250 mg/kg tail vein, 20 hours, 6 mice per group
Protocol: The mice were euthanized 20 hours after the injections; and their tumors, lungs, liver, heart, kidney, pancreas, spleen, and gonads were collected. Portions of the organs and tumors were embedded in paraffin and tested for iron using Prussian blue staining.

iron oxide nanoparticles
adverse effects (rats): no adverse effects

LHRH-Glu-SPION: LHRH bound to SPION through a glutaric acid spacer (Examples 5 and 7) (QHWSYGLRPG; ends and bridges not checked; also: bound to SPION through a glutaric acid spacer, site not given here; UniProt P01148 24-33, looked up)
iron accumulation in the breast cancer cells [1]: 223±16 pg/cell | iron accumulation in the breast cancer cells in the presence of LHRH [1]: 123±25 pg/cell

CC(C)C[C@H](NC(=O)[C@H](C)NC(=O)[C@H](CCCCN)NC(=O)[C@H](CCCCN)NC(=O)[C@H](CC(C)C)NC(=O)[C@H](C)NC(=O)[C@H](CCCCN)NC(=O)[C@H](CCCCN)NC(=O)[C@H](CC(C)C)NC(=O)[C@H](CCCCN)NC(=O)[C@H](CCCCN)NC(=O)[C@H](CC(C)C)NC(=O)[C@H](C)NC(=O)[C@H](CCCCN)NC(=O)[C@H](CCCCN)NC(=O)[C@H](CC(C)C)NC(=O)[C@H](C)NC(=O)[C@H](CCCCN)NC(=O)[C@H](CC(C)C)NC(=O)[C@H](C)NC(=O)[C@H](CC(C)C)NC(=O)[C@H](C)NC(=O)[C@H](Cc1ccccc1)NC(=O)CNC(=O)[C@@H]1CCCN1C(=O)[C@H](CCCNC(=N)N)NC(=O)[C@H](CC(C)C)NC(=O)CNC(=O)[C@H](Cc1ccc(O)cc1)NC(=O)[C@H](CO)NC(=O)[C@H](Cc1c[nH]c2ccccc12)NC(=O)[C@H](Cc1c[nH]cn1)NC(=O)[C@@H]1CCC(=O)N1)C(=O)O [LHRH-Hecate] ([pGlu]HWSYGLRPGFALALKALKKALKKLKKALKKAL-OH; C-terminus assumed)
change of tumor volumes (and tumor weights) ([2]; during and after treatment): arrested at the start of treatment and then diminished significantly; also recorded: decreased | lymph node metastases, assayed by luciferase activity at necropsy ([2]; mouse, in vivo): destroyed | tumor weights at necropsy [2]: 0.07 ± 0.04 g

LHRH−SPION: Fe3O4 magnetite nanoparticles covalently bound to LHRH by carbodiimide reaction (Example 3)
toxicity [3]: not toxic | predicted depletion of iron from tumor and metastatic tissues [4]: slower depletion | predicted iron content in kidney, liver and spleen over time [4]: decrease rather rapidly with time | observed uptake [5]: 452 pg Fe/cell | difference in macrophage uptake, SPIONs versus LHRH-SPIONs (human macrophages): thirteen-fold | fraction taken up by macrophages (human macrophages): about 5% | retention of nanoparticles inside the target cells [6]: at least four weeks | ligand-mediated uptake in cell lines that did not express the appropriate receptors [7]: did not bind and accumulate; also recorded: substantially lower | accumulation in tumor tissue compared to normal (kidney) tissue [8]: preferentially accumulate in tumor tissue | percentage of iron accumulating in lung (tumor-free mice): 0.9% | tumor weights at necropsy [2]: 0.24 ± 0.09 g | iron located in the tumor (estimate of iron content in tumor and kidney) [9]: up to 70% | fraction of injected particles accumulated in primary tumors and metastases [10]: up to 60% | relation of level accumulated in the lungs to metastatic load (luciferase activity) [10]: linear function of the metastatic load | percentage of iron accumulating in kidney ([10]; iv, 250 mg/kg): 3.3% | percentage of iron accumulating in lung ([10]; iv, 250 mg/kg): 22.2% | charge of nanoparticles (in words) [11]: almost neutral | iron accumulation in the breast cancer cells [1]: 165±16 pg/cell | iron accumulation in the breast cancer cells in the presence of LHRH [1]: 106±26 pg/cell | tumors testing positive for iron (Prussian blue staining) [12]: Four of six
